We go through three compounds from patent publication US7176244B1, “Use of 2-nitropropanol, 2-nitroethane, and 2-nitroethanol for control of microbial pathogens” (The United States of America as represented by the …, priority 2002, dated 2007).

The test system of one experiment is Campylobacter jejuni. The experiment is described as follows: Bactericidal effect in Bolton Broth at different pH. As to conditions: sodium salt used; 0, 10, 20 mM in Bolton Broth; pH 5.6, 7.2, 8.2. In kind it is cell-based. The procedure: The bactericidal effect of 2-nitroethane against Campylobacter jejuni was examined in vitro following substantially the same assay as described in the first experiment of Example 1 except Bolton Broth was utilized rather than TSB. In this experiment nitroethane was added to the Bolton Broth medium in amounts to give 0, 10, and 20 mM final concentrations, and trials were conducted in the media at different pH (5.6, 7.2, and 8.2).
Because 2-nitroethane is somewhat volatile, the sodium salt of the compound was prepared and used in this experiment. The salt was prepared using the process described by Majak et al. (1986, J. Anim. Sci., 62:1072–1080, the contents of which are incorporated by reference herein).

The test system of experiment [1] is S. Typhimurium. The experiment in a line: Specific growth rate in tryptic soy broth (A600). In kind it is cell-based, Salmonella Typhimurium. How it is done:
(§1) The bactericidal effect of 2-nitropropanol and nitroethanol were examined in vitro on several pathogenic bacteria including Salmonella Typhimurium, Escherichia coli O157:H7, Campylobacter jejuni, and Enterococcus faecalis. For an initial in vitro study 2-nitropropanol or nitroethanol were added to tryptic soy broth (TSB) medium in amounts to give 0, 2.5, 5, and 10 mM final concentration. Cultures were inoculated in TSB and incubated at 37° C. Specific growth rates (h^−1) were calculated by measuring optical density (A600) with spectrophotometer.

The next experiment concerns E. coli O157:H7. The experiment in a line: Specific growth rate in tryptic soy broth (A600). In kind it is cell-based, Escherichia coli O157:H7. The following applies: 2.5 mM and higher concentrations in TSB, 37° C. The procedure: as §1
A further experiment has as its system E. faecalis. The experiment is described as follows: Specific growth rate in tryptic soy broth (A600). In kind it is cell-based, Enterococcus faecalis. The following applies: 10 mM in TSB, 37° C. The procedure:
as §1

The subject of experiment [2] is S. Typhimurium. The experiment is described as follows: pH effect: populations (CFU/ml) in TSB adjusted to different pH, enumerated on TSA. In kind it is cell-based, Salmonella Typhimurium. The following applies: 37° C. How it is done:
In order to observe the pH effect on this 2-nitropropanol, S. Typhimurium was inoculated into TSB medium adjusted to different pH (5.6, 7.2, and 8.0) with 2-nitropropanol (0, 2.5, and 10 mM final concentration) and incubated at 37° C. Populations of S. Typhimurium were determined (CFU/ml) by enumerating on tryptic soy agar (TSA) at 3, 6, and 24 h. […] However, S. Typhimurium was totally inactivated (more than 5 log reductions) at 10 mM 2-nitropropanol regardless of pH (FIG. 2).

The test system of the next experiment is C. jejuni. The experiment is described as follows: Bactericidal effect in Campylobacter enrichment broth, direct plating and enrichment. In kind it is cell-based, Campylobacter jejuni. As to conditions: 48 h, pH 5.6 and 7.0, 42° C. How it is done:
The bactericidal effect against C. jejuni was also determined in vitro. Cultures were inoculated into Campylobacter enrichment broth containing 2-nitropropanol at 0, 5, 10, and 20 mM of final and incubated at 42° C.

Experiment [3] has as its system S. Typhimurium. In kind it is cell-based, Salmonella Typhimurium. As to conditions: 10 mM. The procedure:
Another experiment was conducted to evaluate the bactericidal effect of 2-nitropropanol against S. Typhimurium in buffered rumen and fecal fluid containing viable populations of endogenous anaerobes. Briefly, ruminal contents and feces were retrieved and strained. Both collected fluids were transferred to laboratory and mixed with anoxic phosphate buffer (pH 6.8). Antibiotic-marked (25 μg novobiocin/ml and 20 μg/ml of nalidixic acid resistant) (NN)S. Typhimurium cultures were inoculated into these mixtures supplemented with 2-nitropropanol at various concentrations (0, 2.5, and 10 mM of final). Those inoculated tubes were incubated at 37° C. and populations were monitored at different sampling time (0, 3, 6, and 24 h) by direct plating onto brilliant green agar (BGA) containing NN.

The test system of experiment [4] is Salmonella Typhimurium. In kind it is in vivo, broiler chicks. As to conditions: oral gavage, 24 h, Experiment 1. How it is done:
The bactericidal effect of 2-nitropropanol on Salmonella typhimurium was determined in vivo. The in vivo study was conducted using 7-day-old chick experimentally infected with S. Typhimurium. In experiment 1, chicks were orally challenged with 10^6 cfu of NN-resistant strain of S. Typhimurium. Chicks were divided into four groups; control, 1 (13 mg 2-nitropropanol/bird), 5 (65 mg 2-nitropropanol/bird) and 10×(130 mg 2-nitropropanol/bird). Treatments were administered via oral gavage. After 24 h, cecal contents were aseptically removed and subjected to bacterial analysis.

Experiment [5] deals with Salmonella Typhimurium. The experiment in a line: Cecal populations in experimentally challenged broiler chicks, experiment 2. As to conditions: oral gavage. In kind it is in vivo. How it is done:
Significant (P<0.05) log reductions occurred in group administered 1×(13 mg/bird) dose for both 24 and 48 h duration compared to untreated control.

In a further experiment the test system is Listeria monocytogenes. The experiment in a line: Bactericidal effect in Tryptic Soy Broth at different pH. In kind it is cell-based. As to conditions: pH 5.6, 7.2, 8.2, 37° C. How it is done: The bactericidal effect of 2-nitropropanol against Listeria monocytogenes was examined in vitro following the same assay as described in the first and second experiments of Example 1. Trials were conducted in the media at different pH (5.6, 7.2, and 8.2).

The structures appear in SMILES notation. Values joined by “and” are separate entries in the source; they are usually repeats but may differ in a detail not shown here. Identical values can stand only once. Like-named read-outs stand apart in the source and are kept apart here.

For `CC[N+](=O)[O-]` [2-nitroethane], the “pH dependence of bactericidal effect against Campylobacter jejuni” value in the experiment on Campylobacter jejuni is “increased at alkaline pH”.
Take `O=[N+]([O-])CCO` [2-nitroethanol]: the “growth of S. Typhimurium (specific growth rate)” value in the experiment on S. Typhimurium [1] is “largely prohibited”. Besides, the “growth of E. coli O157:H7 (specific growth rate)” value with E. coli O157:H7 is “largely prohibited”.
Regarding `CC(CO)[N+](=O)[O-]` (stereo not shown) [2-nitropropanol], in the experiment with S. Typhimurium [1] (2.5 mM and higher concentrations in TSB, 37° C.), the “growth of S. Typhimurium (specific growth rate)” value is listed as “largely prohibited”. The “growth of E. coli O157:H7 (specific growth rate)” value in the experiment with E. coli O157:H7 is reported as “largely prohibited”. Also, in the experiment with E. faecalis, the “growth of E. faecalis (specific growth rate)” value is given as “markedly inhibited”. The “reduction of S. Typhimurium cells” value in the experiment on S. Typhimurium [2] (2.5 mM, pH 5.6, after 24 h) is “approximately 3 log”. Besides, in the experiment with S. Typhimurium [2] (10 mM, regardless of pH (5.6, 7.2, 8.0)), the “reduction of S. Typhimurium cells (totally inactivated)” value was “more than 5 log”. Besides, the “inactivation of C. jejuni cultures” value with C. jejuni (10 mM) and with C. jejuni (20 mM) was “completely inactivated” in each case. Further, the “reductions of Salmonella populations compared to controls” value in the experiment on S. Typhimurium [3] (fecal fluid in anoxic phosphate buffer pH 6.8, 37° C.) is 2–3 log; in the experiment on S. Typhimurium [3] (ruminal fluid in anoxic phosphate buffer pH 6.8, 37° C.) it was 2–3 log. Besides, the “Mean log CFU/g of cecal content (standard deviation)” value in the experiment on Salmonella Typhimurium [4] (1× = 13 mg per bird) is 3.65±2.01 log CFU/g and 3.65 (2.01) B log CFU/g; in the experiment on Salmonella Typhimurium [4] (5× = 65 mg per bird), 3.39±2.42 log CFU/g and 3.39 (2.42) B log CFU/g; with Salmonella Typhimurium [4] (10× = 130 mg per bird) it was 3.47 ± 1.55 log CFU/g and 3.46 (1.55) B log CFU/g. The “Salmonella Typhimurium, Mean log CFU/g of cecal content (standard deviation)” value with Salmonella Typhimurium [5] (0.5× = 6.5 mg per bird, 24 h) was 4.19 (2.53) A log CFU/g; with Salmonella Typhimurium [5] (0.5× = 6.5 mg per bird, 48 h), 3.84 (2.69) AB log CFU/g; with Salmonella Typhimurium [5] (0.5× = 6.5 mg per bird, Combined 24 and 48 h) it was 4.01 (2.59) A log CFU/g; in the experiment with Salmonella Typhimurium [5] (1× = 13 mg per bird, 24 h) it was 2.58 (2.10) B log CFU/g; in the experiment with Salmonella Typhimurium [5] (1× = 13 mg per bird, 48 h), 2.88 (2.78) B log CFU/g; in the experiment on Salmonella Typhimurium [5] (1× = 13 mg per bird, Combined 24 and 48 h), 2.73±2.45 log CFU/g and 2.73 (2.45) B log CFU/g. Moreover, the “pH dependence of bactericidal effect against Listeria monocytogenes” value in the experiment on Listeria monocytogenes is listed as “enhanced in an acidic or alkaline environment, but is somewhat reduced at neutral pH”.
